Reference: PubChem BioAssay (NCI)
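Cultured in 96-well plates, cells were exposed to test compound for 48 hours across five concentrations. TGI is the concentration that stops growth completely.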

Tests used:
Assay in all cases: NCI-60 cell line screen, 48 h
[1] = system: M14 melanoma
[2] = system: SK-MEL-2 melanoma
[3] = system: 786-0 renal
[4] = system: TK-10 renal
[5] = system: K-562 leukemia
[6] = system: HOP-92 NSCLC
[7] = system: SF-268 CNS
[8] = system: HOP-62 NSCLC
[9] = system: PC-3 prostate
[10] = system: SF-539 CNS
[11] = system: NCI/ADR-RES ovarian
[12] = system: T-47D breast
[13] = system: SNB-19 CNS
[14] = system: SN12C renal
[15] = system: KM12 colon
[16] = system: OVCAR-8 ovarian
[17] = system: HCT-116 colon
[18] = system: U251 CNS
[19] = system: BT-549 breast
[20] = system: COLO 205 colon
[21] = system: NCI-H23 lung
[22] = system: RPMI-8226 leukemia
[23] = system: MDA-MB-435
[24] = system: HCT-15 colon
[25] = system: CAKI-1 renal
[26] = system: EKVX NSCLC
[27] = system: A549 NSCLC
[28] = system: MOLT-4 leukemia
[29] = system: UACC-257 melanoma
[30] = system: DU-145 prostate
[31] = system: SF-295 CNS
[32] = system: MDA-N
[33] = system: HT29 colon
[34] = system: MCF7 breast
[35] = system: OVCAR-3 ovarian
[36] = system: A498 renal
[37] = system: SW-620 colon
[38] = system: MDA-MB-231 breast
[39] = system: HCC-2998 colon
[40] = system: SK-MEL-5 melanoma
[41] = system: SK-OV-3 ovarian
[42] = system: ACHN renal
[43] = system: SR leukemia
[44] = system: MALME-3M melanoma
[45] = system: UO-31 renal
[46] = system: CCRF-CEM leukemia
[47] = system: IGROV1 ovarian
[48] = system: NCI-H226 lung
[49] = system: LOX IMVI melanoma
[50] = system: OVCAR-5 ovarian
[51] = system: NCI-H522 lung
[52] = system: UACC-62 melanoma
[53] = system: SNB-75 CNS
[54] = system: HL-60(TB) leukemia
[55] = system: RXF 393 renal
[56] = system: SK-MEL-28 melanoma
[57] = system: HS 578T breast
[58] = system: OVCAR-4 ovarian
[59] = system: NCI-H460 lung

COc1ccc2c(c1)OCC1Cc3cc4c(cc3OC21)OCO4 (stereo not given) was tested, and the TGI [1] was > 100 µM, the TGI [2] was 86.9 µM and the TGI [3] was > 100 µM. For the same compound, the TGI [4] was 81.1 µM, the TGI [5] was > 100 µM and the TGI [6] was > 100 µM. The TGI [7] was > 100 µM, the TGI [8] was > 100 µM and the TGI [9] was > 100 µM. For the same compound, the TGI [10] was > 100 µM, the TGI [11] was > 100 µM and the TGI [12] was > 100 µM. The TGI [13] was > 100 µM, the TGI [14] was > 100 µM and the TGI [15] was > 100 µM. For the same compound, the TGI [16] was > 100 µM, the TGI [17] was > 100 µM and the TGI [18] was > 100 µM. For the same compound, the TGI [19] was > 100 µM, the TGI [20] was > 100 µM and the TGI [21] was > 100 µM. For the same compound, the TGI [22] was > 100 µM, the TGI [23] was 34.7 µM and the TGI [24] was > 100 µM. For the same compound, the TGI [25] was > 100 µM, the TGI [26] was > 100 µM and the TGI [27] was > 100 µM. The TGI [28] was > 100 µM, the TGI [29] was > 100 µM and the TGI [30] was > 100 µM. The TGI [31] was > 100 µM, the TGI [32] was 13.8 µM and the TGI [33] was > 100 µM. The TGI [34] was > 100 µM, the TGI [35] was > 100 µM and the TGI [36] was > 100 µM. For the same compound, the TGI [37] was > 100 µM, the TGI [38] was > 100 µM and the TGI [39] was > 100 µM. The TGI [40] was 57.2 µM, the TGI [41] was > 100 µM and the TGI [42] was > 100 µM. The TGI [43] was > 100 µM, the TGI [44] was > 100 µM and the TGI [45] was > 100 µM. The TGI [46] was > 100 µM, the TGI [47] was > 100 µM and the TGI [48] was > 100 µM. For the same compound, the TGI [49] was 52.4 µM, the TGI [50] was > 100 µM and the TGI [51] was > 100 µM. The TGI [52] was > 100 µM.
With S=C1C(=Nc2ccccc2)N(C2CCCCC2)C(=NC2CCCCC2)N1c1ccccc1 the TGI [53] was > 100 µM, the TGI [54] was > 100 µM and the TGI [2] was > 100 µM. The TGI [55] was > 100 µM, the TGI [3] was > 100 µM and the TGI [4] was > 100 µM. The TGI [5] was > 100 µM, the TGI [6] was > 100 µM and the TGI [7] was > 100 µM. The TGI [8] was > 100 µM, the TGI [9] was > 100 µM and the TGI [10] was > 100 µM. The TGI [11] was > 100 µM, the TGI [12] was > 100 µM and the TGI [13] was > 100 µM. The TGI [14] was > 100 µM, the TGI [15] was > 100 µM and the TGI [16] was > 100 µM. The TGI [17] was > 100 µM, the TGI [18] was > 100 µM and the TGI [20] was > 100 µM. The TGI [21] was > 100 µM, the TGI [22] was > 100 µM and the TGI [23] was > 100 µM. For the same compound, the TGI [56] was > 100 µM, the TGI [24] was > 100 µM and the TGI [25] was > 100 µM. For the same compound, the TGI [26] was > 100 µM, the TGI [27] was > 100 µM and the TGI [28] was > 100 µM. The TGI [29] was > 100 µM, the TGI [30] was > 100 µM and the TGI [57] was > 100 µM. For the same compound, the TGI [31] was > 100 µM, the TGI [32] was > 100 µM and the TGI [33] was > 100 µM. For the same compound, the TGI [36] was > 100 µM, the TGI [37] was > 100 µM and the TGI [38] was > 100 µM. For the same compound, the TGI [39] was > 100 µM, the TGI [40] was > 100 µM and the TGI [41] was > 100 µM. For the same compound, the TGI [42] was > 100 µM, the TGI [43] was > 100 µM and the TGI [44] was > 100 µM. The TGI [45] was > 100 µM, the TGI [46] was > 100 µM and the TGI [58] was > 100 µM. The TGI [47] was > 100 µM, the TGI [59] was > 100 µM and the TGI [48] was > 100 µM. For the same compound, the TGI [49] was > 100 µM, the TGI [50] was > 100 µM and the TGI [51] was 71.8 µM. For the same compound, the TGI [52] was > 100 µM.
For O=C(CC(C(=O)c1ccc(F)cc1)c1ccsc1)c1cccs1 (stereo not given), the TGI [1] was > 100 µM, the TGI [53] was > 100 µM and the TGI [54] was > 100 µM. For the same compound, the TGI [2] was > 100 µM, the TGI [3] was > 100 µM and the TGI [4] was > 100 µM. For the same compound, the TGI [5] was > 100 µM, the TGI [7] was > 100 µM and the TGI [8] was > 100 µM. For the same compound, the TGI [9] was > 100 µM, the TGI [10] was > 100 µM and the TGI [11] was > 100 µM. The TGI [12] was > 100 µM, the TGI [13] was > 100 µM and the TGI [14] was > 100 µM. The TGI [15] was > 100 µM, the TGI [16] was > 100 µM and the TGI [17] was > 100 µM. The TGI [18] was > 100 µM, the TGI [20] was > 100 µM and the TGI [21] was > 100 µM. The TGI [22] was > 100 µM, the TGI [23] was > 100 µM and the TGI [56] was > 100 µM. The TGI [24] was > 100 µM, the TGI [25] was > 100 µM and the TGI [26] was > 100 µM. For the same compound, the TGI [27] was > 100 µM, the TGI [28] was 89.7 µM and the TGI [29] was > 100 µM. The TGI [30] was > 100 µM, the TGI [57] was > 100 µM and the TGI [31] was > 100 µM. For the same compound, the TGI [32] was > 100 µM, the TGI [33] was > 100 µM and the TGI [34] was > 100 µM. The TGI [36] was > 100 µM, the TGI [37] was > 100 µM and the TGI [38] was > 100 µM. For the same compound, the TGI [39] was > 100 µM, the TGI [40] was > 100 µM and the TGI [41] was > 100 µM. For the same compound, the TGI [42] was > 100 µM, the TGI [43] was > 100 µM and the TGI [44] was > 100 µM. For the same compound, the TGI [45] was > 100 µM, the TGI [46] was > 100 µM and the TGI [58] was > 100 µM. The TGI [47] was > 100 µM, the TGI [59] was > 100 µM and the TGI [48] was > 100 µM. The TGI [50] was > 100 µM and the TGI [52] was > 100 µM.
